Results: US20230416849A1, “METHODS FOR DETECTING VIRAL RNA USING ATP-RELEASING NUCLEOTIDES” (priority 2020, published 2023)

Biological target: luciferase (Photinus pyralis, UniProt P08659)
Assay: Reactivity of apyrase ATP-depleted nucleotide stocks with luciferase (background signal)
Type: biochemical
Description: ARNs were investigated as a source of background signal. There are two possible sources of background resulting from ARNs: (1) residual ATP contamination from the insufficient purification, and (2) the potential for these nucleotides to be accepted as substrates by luciferase. While ATP contamination can be removed, the kinetics of a nucleotide to react with luciferase is intrinsic to the molecule and thus much more difficult to manipulate. Apyrase was used to deplete nucleotide stocks of ATP in order to compare their reactivity with luciferase. […] However, dCp4A had high levels of ATP contamination.

Sequence of luciferase (P08659 whole entry): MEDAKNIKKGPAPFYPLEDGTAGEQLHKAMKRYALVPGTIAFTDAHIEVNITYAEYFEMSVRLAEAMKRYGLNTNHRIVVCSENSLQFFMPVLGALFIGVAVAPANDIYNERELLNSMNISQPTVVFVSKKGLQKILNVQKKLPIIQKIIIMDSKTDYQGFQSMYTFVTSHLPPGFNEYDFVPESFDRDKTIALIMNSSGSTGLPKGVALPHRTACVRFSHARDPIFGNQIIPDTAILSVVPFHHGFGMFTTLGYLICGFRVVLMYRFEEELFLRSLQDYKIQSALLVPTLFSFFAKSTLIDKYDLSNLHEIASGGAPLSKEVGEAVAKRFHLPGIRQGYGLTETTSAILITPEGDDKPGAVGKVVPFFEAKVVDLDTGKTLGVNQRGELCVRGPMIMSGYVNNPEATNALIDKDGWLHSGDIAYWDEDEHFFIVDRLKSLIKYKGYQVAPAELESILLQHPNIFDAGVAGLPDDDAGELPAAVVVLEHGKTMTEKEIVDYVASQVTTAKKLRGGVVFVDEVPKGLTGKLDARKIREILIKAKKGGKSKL

**Q.** With Nc1ncnc2c1ncn2[C@@H]1O[C@H](COP(=O)(O)OP(=O)(O)OP(=O)(O)OP(=O)(O)OC[C@H]2O[C@@H](n3cnc4c(N)ncnc43)C[C@@H]2O)[C@@H](O)[C@H]1O [dAp4A, deoxyadenosine-5′-tetraphosphate-P4-5′-adenosine] as the compound, how does the “activity with luciferase compared with pyrimidine counterparts (dCp4A and dTp4A)” value read?
**A.** higher activity

**Q.** With Nc1nc2c(ncn2[C@H]2C[C@H](O)[C@@H](COP(=O)(O)OP(=O)(O)OP(=O)(O)OP(=O)(O)OC[C@H]3O[C@@H](n4cnc5c(N)ncnc54)[C@H](O)[C@@H]3O)O2)c(=O)[nH]1 [dGp4A, deoxyguanosine-5′-tetraphosphate-P4-5′-adenosine] as the compound, how does the “activity with luciferase compared with pyrimidine counterparts (dCp4A and dTp4A)” value read?
**A.** higher activity
